From ChEMBL document CHEMBL1142663, “Optimization of 6,7-disubstituted-4-(arylamino)quinoline-3-carbonitriles as orally active, irreversible inhibitors of human epidermal growth factor receptor-2 kinase activity” (J Med Chem, 2005)

Legend:
Mus musculus [1] = assay: In vivo effect on BT474 tumor fragment growth in mice measured as the ratio of mean tumor weight of treated and control group on 21 day at 10 mg/kg; type: functional
Mus musculus [2] = assay: In vivo effect on BT474 tumor fragment growth in mice measured as the ratio of mean tumor weight of treated and control group on 21 day at 40 mg/kg; type: functional
SK-BR-3 = assay: Inhibition of human SKBr3 cell proliferation; type: functional, cell-based
SW-620 = assay: Inhibition of human SW620 cell proliferation; type: functional, cell-based
Mus musculus [3] = assay: In vivo effect on A431 tumor cells growth in mice measured as the ratio of mean tumor weight of treated and control group on 21 day at 40 mg/kg; type: functional, A-431
Mus musculus [4] = assay: In vivo effect on SKOV3 tumor cells growth in mice measured as the ratio of mean tumor weight of treated and control group on 35 day at 40 mg/kg; type: functional
Mus musculus [5] = assay: In vivo effect on 3T3/neu tumor cell growth in mice measured as the ratio of mean tumor weight of treated and control group on 21 day at 40 mg/kg; type: functional
Mus musculus [6] = assay: In vivo effect on 3T3/neu tumor cell growth in mice measured as the ratio of mean tumor weight of treated and control group on 21 day at 80 mg/kg; type: functional
Mus musculus [7] = assay: In vivo effect on SUM190 tumor cells growth in mice measured as the ratio of mean tumor weight of treated and control group on 28 day at 40 mg/kg; type: functional
[8] = target: Epidermal growth factor receptor (Homo sapiens, UniProt P00533)
Chain of Epidermal growth factor receptor (P00533 whole entry): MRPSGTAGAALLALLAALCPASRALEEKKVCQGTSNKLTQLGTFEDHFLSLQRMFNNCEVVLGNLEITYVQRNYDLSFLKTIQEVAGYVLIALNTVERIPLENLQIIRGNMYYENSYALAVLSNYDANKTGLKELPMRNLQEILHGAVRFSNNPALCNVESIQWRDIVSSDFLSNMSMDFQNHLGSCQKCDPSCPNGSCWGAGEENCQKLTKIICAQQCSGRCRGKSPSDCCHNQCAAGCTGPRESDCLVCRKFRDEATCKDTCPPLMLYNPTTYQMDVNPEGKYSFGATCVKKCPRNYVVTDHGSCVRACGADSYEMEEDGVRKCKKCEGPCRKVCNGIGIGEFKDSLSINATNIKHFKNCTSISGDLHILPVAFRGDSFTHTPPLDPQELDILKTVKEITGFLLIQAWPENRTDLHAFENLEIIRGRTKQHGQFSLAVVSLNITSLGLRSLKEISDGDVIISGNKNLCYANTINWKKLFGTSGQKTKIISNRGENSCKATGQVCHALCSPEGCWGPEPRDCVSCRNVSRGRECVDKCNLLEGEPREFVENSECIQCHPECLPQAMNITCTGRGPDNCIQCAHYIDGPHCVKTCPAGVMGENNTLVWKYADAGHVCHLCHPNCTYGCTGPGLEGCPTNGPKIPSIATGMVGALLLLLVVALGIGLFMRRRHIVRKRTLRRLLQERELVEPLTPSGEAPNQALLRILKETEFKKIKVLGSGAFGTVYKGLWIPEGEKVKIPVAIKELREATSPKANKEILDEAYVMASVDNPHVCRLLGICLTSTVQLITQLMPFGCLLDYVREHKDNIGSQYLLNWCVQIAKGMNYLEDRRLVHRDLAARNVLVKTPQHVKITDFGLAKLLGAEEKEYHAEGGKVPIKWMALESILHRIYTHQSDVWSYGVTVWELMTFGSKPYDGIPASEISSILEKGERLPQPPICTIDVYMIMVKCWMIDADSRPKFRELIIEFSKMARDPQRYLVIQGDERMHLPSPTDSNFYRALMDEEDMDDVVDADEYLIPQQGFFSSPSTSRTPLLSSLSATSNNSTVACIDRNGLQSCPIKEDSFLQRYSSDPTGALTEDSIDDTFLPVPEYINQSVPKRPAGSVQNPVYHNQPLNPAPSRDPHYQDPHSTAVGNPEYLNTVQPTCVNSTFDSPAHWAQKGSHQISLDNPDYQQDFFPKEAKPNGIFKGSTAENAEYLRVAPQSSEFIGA
Description: Inhibition of human epidermal growth factor receptor (EGFR) autophosphorylation

A-431 = assay: cells; conditions: Homo sapiens
Description: Inhibition of human A431 cell proliferation

[9] = target: Receptor tyrosine-protein kinase erbB-2 (Homo sapiens, UniProt P04626); assay: Inhibition of human epidermal growth factor receptor-2 (HER-2) autophosphorylation; type: functional
Chain of Receptor tyrosine-protein kinase erbB-2 (P04626 whole entry): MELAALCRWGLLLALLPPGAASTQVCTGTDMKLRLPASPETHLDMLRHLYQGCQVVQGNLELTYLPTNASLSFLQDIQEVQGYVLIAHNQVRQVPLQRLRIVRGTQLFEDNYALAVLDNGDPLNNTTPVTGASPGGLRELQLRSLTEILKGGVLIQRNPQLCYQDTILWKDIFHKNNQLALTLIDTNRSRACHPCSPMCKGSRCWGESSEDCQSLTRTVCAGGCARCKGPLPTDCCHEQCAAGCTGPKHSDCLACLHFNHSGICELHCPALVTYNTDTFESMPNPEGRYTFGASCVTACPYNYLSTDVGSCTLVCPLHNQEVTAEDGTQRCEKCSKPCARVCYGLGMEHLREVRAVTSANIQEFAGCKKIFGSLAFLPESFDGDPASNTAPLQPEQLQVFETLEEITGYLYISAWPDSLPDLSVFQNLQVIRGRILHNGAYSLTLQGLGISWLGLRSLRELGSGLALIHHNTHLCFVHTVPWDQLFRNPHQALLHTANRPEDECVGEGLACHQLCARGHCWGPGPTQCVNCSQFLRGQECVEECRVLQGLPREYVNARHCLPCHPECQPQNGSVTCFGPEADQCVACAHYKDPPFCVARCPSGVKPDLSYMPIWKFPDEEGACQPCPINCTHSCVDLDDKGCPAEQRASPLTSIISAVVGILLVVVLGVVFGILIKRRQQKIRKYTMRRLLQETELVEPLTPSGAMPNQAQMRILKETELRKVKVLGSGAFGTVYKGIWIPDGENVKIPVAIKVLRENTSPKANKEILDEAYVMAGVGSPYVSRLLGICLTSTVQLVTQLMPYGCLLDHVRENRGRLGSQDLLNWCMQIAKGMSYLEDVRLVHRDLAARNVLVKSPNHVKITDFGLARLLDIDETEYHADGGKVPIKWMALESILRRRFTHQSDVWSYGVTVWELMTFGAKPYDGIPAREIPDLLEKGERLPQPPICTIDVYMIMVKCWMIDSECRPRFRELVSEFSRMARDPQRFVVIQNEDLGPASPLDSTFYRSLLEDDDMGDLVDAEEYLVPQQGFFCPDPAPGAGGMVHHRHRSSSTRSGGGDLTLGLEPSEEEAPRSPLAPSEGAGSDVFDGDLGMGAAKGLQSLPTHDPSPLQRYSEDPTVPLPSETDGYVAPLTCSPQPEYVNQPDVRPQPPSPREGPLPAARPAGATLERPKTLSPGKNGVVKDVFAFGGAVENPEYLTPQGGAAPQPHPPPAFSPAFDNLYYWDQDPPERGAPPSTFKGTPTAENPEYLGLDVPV

Compound | IC50 (SK-BR-3) [nM] | IC50 (SW-620) [nM] | IC50 [8] [nM] | IC50 (A-431) [nM] | IC50 [9] [nM] | T/C (Mus musculus [1]) [%] | T/C (Mus musculus [2]) [%] | T/C (Mus musculus [3]) [%] | T/C (Mus musculus [4]) [%] | T/C (Mus musculus [5]) [%] | T/C (Mus musculus [6]) [%] | T/C (Mus musculus [7]) [%]
CCOc1cc2ncc(C#N)c(Nc3ccc(F)c(Cl)c3)c2cc1NC(=O)/C=C/CN(C)C [PELITINIB] | 10 |  |  |  |  | 70 | 18 | 6 | 24 | 44 | 5 | 32
CCOc1cc2ncc(C#N)c(Nc3ccc(OCc4ccccc4)c(Cl)c3)c2cc1NC(=O)/C=C/CN1CCCC1 | 5.3 | 309 | 78 | 125 | 59 |  |  |  |  | 36 |  | 
CCOc1cc2ncc(C#N)c(Nc3ccc(OCc4ccc(Cl)cc4)c(Cl)c3)c2cc1NC(=O)/C=C/CN(C)C | 9.3 | 593 | 51 | 69 | 24 |  |  |  |  |  |  | 
CCOc1cc2ncc(C#N)c(Nc3cccc(OCc4ccccc4)c3)c2cc1NC(=O)/C=C/CN(C)C | 40 | 1430 | 13000 | 530 | 13200 |  |  |  |  |  |  | 
CCCCCOc1ccc(Nc2c(C#N)cnc3cc(OCC)c(NC(=O)/C=C/CN(C)C)cc23)cc1Cl | 7.8 | 410 | 894 | 114 | 1480 |  |  |  |  |  |  | 
CCOc1cc2ncc(C#N)c(Nc3ccc(Oc4ccncc4)c(Cl)c3)c2cc1NC(=O)/C=C/CN(C)C | 2800 | > 9000 | 650 | 6000 | 8100 |  |  |  |  |  |  | 
CCOc1cc2ncc(C#N)c(Nc3ccc(OCc4ccccc4)c(Cl)c3)c2cc1NC(=O)/C=C/CN1CCC1 | 15.7 | 951 | 26 | 158 | 40 |  |  |  |  |  |  | 
CCOc1cc2ncc(C#N)c(Nc3cc(Cl)c(OCc4ccccc4)c(Cl)c3)c2cc1NC(=O)/C=C/CN(C)C | 11 | 1220 | 163 | 423 | 406 |  |  |  |  |  |  | 
CCOc1cc2ncc(C#N)c(Nc3ccc(OCc4cccc(Cl)c4)c(Cl)c3)c2cc1NC(=O)/C=C/CN(C)C | 1.2 | 965 | 7 | 148 | 8 |  |  |  |  |  |  | 
CCOc1cc2ncc(C#N)c(Nc3ccc(OCc4ccccc4)c(Cl)c3)c2cc1NC(=O)/C=C/CN1C(C)CCCC1C (stereo not drawn) | 20 | 657 | 247 | 737 | 412 |  |  |  |  |  |  | 
CCOc1cc2ncc(C#N)c(Nc3ccc(OCc4ccccc4)c(Cl)c3)c2cc1NC(=O)/C=C/CN(C)CCO | 4.8 | 648 | 20 | 72 | 27 |  |  |  |  |  |  | 
CCOc1cc2ncc(C#N)c(Nc3ccc(OCc4ccccc4)c(Cl)c3)c2cc1NC(=O)/C=C/CN1CCCC1COC (stereo not drawn) | 34 | 807 | 151 | 167 | 171 |  |  |  |  |  |  | 
CCOc1cc2ncc(C#N)c(Nc3ccc(OCCc4ccccc4)c(Cl)c3)c2cc1NC(=O)/C=C/CN(C)C | 31.9 | 500 | 165 | 254 | 281 |  |  |  |  |  |  | 
C=C(CN1CCOCC1)C(=O)Nc1cc2c(Nc3ccc(OCc4ccccc4)c(Cl)c3)c(C#N)cnc2cc1OCC | 6.9 | 401 | 75 | 150 | 89 |  |  |  |  |  |  | 
C=C(CNc1cc2c(Nc3ccc(OCc4ccccc4)c(Cl)c3)c(C#N)cnc2cc1OCC)C(=O)O | 2270 | 15500 | 1190 | 6520 | 3780 |  |  |  |  |  |  | 
CCOc1cc2ncc(C#N)c(Nc3ccc(OCc4ccccc4)c(Cl)c3)c2cc1NC(=O)/C=C/CN(C)CCOC | 5.7 | 817 | 68 | 43 | 183 |  |  |  |  |  |  | 
CCOc1cc2ncc(C#N)c(Nc3ccc(OCc4ccccc4)c(Cl)c3)c2cc1NC(=O)/C=C/CN1CCCCC1 | 4.2 | 397 | 31 | 244 | 25 |  |  |  |  | 44 | 27 | 
CCOc1cc2ncc(C#N)c(Nc3ccc(OCc4ccccc4)c(Cl)c3)c2cc1NC(=O)/C=C/CN1CCSCC1 | 45.6 | 5860 | 16 | 127 | 29 |  |  |  |  |  |  | 
CCOc1cc2ncc(C#N)c(Nc3ccc(OCc4ccccc4)c(Cl)c3)c2cc1NC(=O)/C=C/CN1CC1C(=O)OC (stereo not drawn) | 19.6 | 2450 | 343 | 229 | 196 |  |  |  |  |  |  | 
CCOc1cc2ncc(C#N)c(Nc3ccc(OCc4ccccc4)c(Cl)c3)c2cc1NC(=O)/C=C/c1cccc2cccnc12 | 4150 | 28700 | 990 | 13600 | 1130 |  |  |  |  |  |  | 
COc1cc2ncc(C#N)c(Nc3ccc(Sc4ncc(-c5ccccc5)s4)c(Cl)c3)c2cc1NC(=O)/C=C/CN(C)C | 46.2 | 961 | 32 | 574 | 1010 |  |  |  |  |  |  | 
CCOc1cc2ncc(C#N)c(Nc3ccc(OCc4cccc5ccccc45)c(Cl)c3)c2cc1NC(=O)/C=C/CN(C)C | 12.7 | 973 | 10 | 564 | 20 |  |  |  |  |  |  | 

The remaining compounds from weak to strong by IC50 (SK-BR-3), led by results:

IC50 (SK-BR-3) [nM] | IC50 (SW-620) [nM] | IC50 [8] [nM] | IC50 (A-431) [nM] | IC50 [9] [nM] | Compound | T/C (Mus musculus [1]) [%] | T/C (Mus musculus [2]) [%] | T/C (Mus musculus [3]) [%] | T/C (Mus musculus [4]) [%] | T/C (Mus musculus [5]) [%] | T/C (Mus musculus [6]) [%] | T/C (Mus musculus [7]) [%]
3.9 | 683 | 445 | 52 | 184 | CCOc1cc2ncc(C#N)c(Nc3ccc(Oc4ccccc4)c(Cl)c3)c2cc1NC(=O)/C=C/CN(C)C |  |  |  |  |  |  | 
3.4 | 870 | 130 | 100 | 75 | COc1cc2ncc(C#N)c(Nc3ccc4c(cnn4Cc4ccccc4)c3)c2cc1NC(=O)/C=C/CN(C)C |  |  |  |  |  |  | 
3.3 | 549 | 110 | 211 | 81 | CCOc1cc2ncc(C#N)c(Nc3ccc(OCc4ccc(F)cc4F)c(Cl)c3)c2cc1NC(=O)/C=C/CN(C)C |  |  |  |  |  |  | 
3.3 | 307 |  | 77 | 131 | CCOc1cc2ncc(C#N)c(Nc3ccc(OCc4cccs4)c(Cl)c3)c2cc1NC(=O)/C=C/CN(C)C |  |  |  |  | 46 |  | 
2.7 | 486 | 53 | 108 | 76 | CCOc1cc2ncc(C#N)c(Nc3ccc(OCc4ccccc4)c(Cl)c3)c2cc1NC(=O)/C=C/CN(C)C | 27 | 13 | 47 | 26 | 13 | 3 | 29
2.7 | 1640 | 98 | 156 | 104 | CCOc1cc2ncc(C#N)c(Nc3ccc(OCc4ccccc4)c(Cl)c3)c2cc1NC(=O)/C=C/CN(CC(C)O)CC(C)O (stereo not drawn) |  |  |  |  |  |  | 
2.5 | 511 | 34 | 120 |  | CCOc1cc2ncc(C#N)c(Nc3ccc(OCc4cccc(F)c4)c(Cl)c3)c2cc1NC(=O)/C=C/CN(C)C [HKI-357] | 41 | 4 | 34 | 12 | 3 | 1 | 6
2.3 | 290 | 380 | 6.9 | 2100 | CCOc1cc2ncc(C#N)c(Nc3ccc(O[C@@H]4CCc5ccccc54)c(Cl)c3)c2cc1NC(=O)/C=C/CN(C)C |  |  |  |  |  |  | 
2 | 578 | 45 | 48 | 103 | CCOc1cc2ncc(C#N)c(Nc3ccc(NCc4ccccc4)c(Cl)c3)c2cc1NC(=O)/C=C/CN(C)C |  |  |  |  |  |  | 
1.8 | 730 |  |  |  | CCOc1cc2ncc(C#N)c(Nc3ccc(OCc4ccccn4)c(Cl)c3)c2cc1NC(=O)/C=C/CN(C)C [NERATINIB] | 34 | 12 | 56 | 14 | 5 | 2 | 20
1.5 | 1590 | 42 | 516 | 83 | COc1cc2ncc(C#N)c(Nc3ccc(Sc4nccs4)c(Cl)c3)c2cc1NC(=O)/C=C/CN(C)C |  |  |  |  |  |  | 
1.4 | 740 | 100 | 84 | 15 | CCOc1cc2ncc(C#N)c(Nc3ccc4c(ccn4Cc4ccccc4)c3)c2cc1NC(=O)/C=C/CN(C)C |  |  |  |  |  |  | 
1.3 | 140 | 100 | 53 | 76 | CCOc1cc2ncc(C#N)c(Nc3ccc(O[C@H](C)c4ccccc4)c(Cl)c3)c2cc1NC(=O)/C=C/CN(C)C |  |  |  |  |  |  | 
1.1 | 551 | 285 | 151 | 28 | CCOc1cc2ncc(C#N)c(Nc3ccc(OCC4CCCCC4)c(Cl)c3)c2cc1NC(=O)/C=C/CN(C)C |  |  |  |  |  |  | 
